The structures appear in SMILES notation. Read-outs that look alike come from different tables or passages of the source.

The inhibition is the change of the read-out against control, counted positive when it falls.

Experiment [1] deals with HL-60 cells. The experiment can be described thus: apoptosis-inducing activity to HL-60 cells. It is filed as cell-based, human. The following applies: Homo sapiens. As for the experimental part: (2) The cyclopentenone prepared in Example 2-(1) was used for preparing aqueous solutions of the cyclopentenone in the concentrations of 2.86 mM, 955 μM, 318 μM, 106 μM, 35 μM, 12 μM and […]. Then said heat-treated substance was adjusted to pH 7.0 with NaOH and the apoptosis-inducing activity to HL-60 cells was measured as follows.
To 1.35 ml of this suspension was added 0.15 ml of the above-mentioned cyclopentenone solution and the mixture was incubated at […] for 20 hours in the presence of 5% of carbon dioxide gas.

For experiment [2], the system named is HL-60 cells. The experiment can be described thus: viable HL-60 cell number after incubation. It is filed as cell-based, human. The following applies: sixth day.
The test system of experiment [3] is Pseudomonas aeruginosa (IFO 3080). Kind of experiment: growth turbidity, microorganism (15). It is filed as cell-based. The following applies: 8 h, control 239. The source says: They were testing microorganism (13): Escherichia coli HB101 (ATCC 33694); testing microorganism (14): Salmonella typhimurium LT-2 (ATCC 27106); testing microorganism (15): Pseudomonas aeruginosa (IFO 3080); testing microorganism (16): Staphylococcus aureus 3A (NCTC 8319); testing microorganism (17): Bacillus subtilis (IFO 3034); and testing microorganism (18): Streptococcus mutans (GS5; stored at National Institute of Health).
The testing microorganisms were subjected to a seed culture overnight in an L-broth (1% tryptone, 0.5% yeast extract and […]; pH 7.0). The seed culture (5 μl) was inoculated to a medium to which 25-200 μg/ml of cyclopentenone was added to 5 ml of L-both and also to a medium to which nothing was added and a shake incubation was conducted at 37° C. to measure the growth. At the initiation of the incubation and also at eight hours thereafter, turbidity of the culture was measured using a Fuji Digital Turbidimeter (sold from Fuji Kogyo KK; manufactured by Akiyama Denki Seisakusho) under the condition that the adjusted scale was 82.3 and the growth of the tested microorganism was measured from the value (growth turbidity) obtained by deducting the turbidity at the initiation of incubation from that after eight hours. Incidentally, in the case of the testing microorganism (18), a brain heart infusion was used instead of L-broth.

The test system of experiment [4] is Campylobacter jejuni A3309. Kind of experiment: antibacterial action to Campylobacter. The following applies: 37° C., 48 hours, read-out: concentration at which no growth of the microorganism was noted. The experiment is classed as cell-based. The procedure: (2) Campylobacter jejuni A3309 (stored at the Institute of Hygienic Sciences) was inoculated to a brain heart infusion medium (manufactured by Difco) containing 2% of calf serum (manufactured by Dainippon Seiyaku) and subjected to a shake preincubation at 37° C. for 16 hours. The culture (50 μl) was spread on 20 ml of 0.5% NaCl-containing Muller-Hinton plate medium (manufactured by BBL) containing 800, 400, 200, 100, 50, 25, 12.5, 6.25, 3.13 or 1.56 μg/ml of cyclopentenone and subjected to a stationary incubation at 37° C. for 48 hours.

In experiment [5] the test system is Aspergillus fumigatus TIMM 1776. Kind of experiment: antimicrobial activity to fungi. It is filed as cell-based. The following applies: high concentrations.
For the next experiment, the system named is Sarcoma-180. Kind of experiment: life-prolonging effect, intraperitoneal Sarcoma-180. The experiment is classed as in vivo, female mice of ICR strain. The following applies: intraperitoneal tumor.

With `O=C1C=CC(O)C1O` (centres unmarked) [the cyclopentenone, 4,5-dihydroxy-2-cyclopenten-1-one], the minimal effective concentration with HL-60 cells [1] (HL-60, 20 h, read-out: final concentration at which viable cell numbers and cell viability decreased) was at least 10.6 µM; with HL-60 cells [1] (HL-60, 20 hours, 35 μM solution added, read-out: final concentration at which apoptosis was induced (DNA molecular weight became small, cell shape changed)), 3.5 µM. For the same compound, the viable cells entry with HL-60 cells [2] (10 μg/ml) was “no viable cell was found”. The inhibition at 0.01 µg/mL in the experiment with HL-60 cells [2] (Homo sapiens, HL-60, 0.01 μg/ml, vs control, read-out: cell growth inhibition) was about 40%. In addition, the inhibition at 0.1 µg/mL in the experiment with HL-60 cells [2] (Homo sapiens, HL-60, 0.1 μg/ml, vs control, read-out: cell growth inhibition) is about 55%. Besides, in the experiment with HL-60 cells [2] (Homo sapiens, HL-60, 1 μg/ml, vs control, read-out: cell growth inhibition), the inhibition at 1 µg/mL is about 90%. Also, the “Growth Turbidity” value was determined as 2 in experiment [3] (25 μg/ml), 0 in experiment [3] (50 μg/ml), 0 in experiment [3] (100 μg/ml) and 0 in experiment [3] (200 μg/ml). Besides, the MIC in experiment [4] was at least 12.5 µg/mL. Besides, in experiment [5], the antimicrobial activity result is listed as “antimicrobial activity at high concentrations”. In addition, the “increase in life span” value with Sarcoma-180 worked out at 148%. This compound yielded a mean survival days with Sarcoma-180 (control 22.6 days) of 33.4 days.

(Values after US6087401A, “Cyclopentenones, process for preparing the same, and the use thereof” (Takara Shuzo Co., Ltd., priority 1996, dated 2000).)
